Assay results taken from ChEMBL document CHEMBL6153037, “Developing dual-responsive quinolinium prodrugs of 8-hydroxyquinoline by harnessing the dual chelating sites” (Eur J Med Chem, 2025).
pIC50: −log10 of the molar value. Converted amounts (≈) assume the structure as drawn. The source made the active and inactive calls. No cut-off for these calls is given here.

Columns and labels:
MDA-MB-231 [1] = assay: Cytotoxicity against human MDA-MB-231 cells assessed as decrease in cell viability at 5 uM incubated for 48 hrs by MTT assay relative to control; assay type: functional
MDA-MB-231 [2] = assay: Cytotoxicity against human MDA-MB-231 cells incubated for 48 hrs by MTT assay; assay type: functional, cell-based; conditions: MDA-MB-231, 48 h
MDA-MB-231 [3] = assay: Induction of apoptosis in human MDA-MB-231 cells assessed as necrotic cells incubated for 24 hrs by Annexin V-FITC/PI staining based flow cytometry (reference value: 0.065 %); assay type: functional
MDA-MB-231 [4] = assay: Induction of apoptosis in human MDA-MB-231 cells assessed as viable cells incubated for 24 hrs by Annexin V-FITC/PI staining based flow cytometry (reference value: 99.5 %); assay type: functional
[5] = Lipophilicity, logD of compound at pH 7.4; assay type: physicochemical; conditions: buffer
MDA-MB-231 [6] = assay: Induction of apoptosis in human MDA-MB-231 cells assessed as early apoptotic cells incubated for 24 hrs by Annexin V-FITC/PI staining based flow cytometry (reference value: 0.22 %); assay type: functional
MDA-MB-231 [7] = assay: Induction of apoptosis in human MDA-MB-231 cells incubated for 24 hrs by TUNEL assay; assay type: functional, cell-based
MCF-10A [8] = assay: Induction of apoptosis in human MCF-10A cells assessed as early apoptotic cells incubated for 24 hrs by Annexin V-FITC/PI staining based flow cytometry (reference value: 1.66 %); assay type: toxicity, cell-based
MDA-MB-231 [9] = assay: Antitumor activity against human MDA-MB-231 cells xenografted in BALB/c nude mouse assessed as tumor growth inhibition at 20 mg/kg, iv administered every two days for 21 days; assay type: functional, organism-based; conditions: time 21.0 day
MDA-MB-231 [10] = assay: Induction of DNA damage in human MDA-MB-231 cells assessed as increase in gamma-H2AX level incubated for 24 hrs by immunofluorescence based analysis; assay type: functional, cell-based
MDA-MB-231 [11] = assay: Induction of apoptosis in human MDA-MB-231 cells assessed as late apoptotic cells incubated for 24 hrs by Annexin V-FITC/PI staining based flow cytometry (reference value: 0.17 %); assay type: functional
[12] = Toxicity in BALB/c nude mouse xenografted with human MDA-MB-231 cells assessed as body weight change at 20 mg/kg, iv administered every two days for 21 days; assay type: organism-based; conditions: in vivo, 504 h, time 21 day
[13] = Selectivity index, ratio of inhibition of DNA synthesis in human MCF-10A cells to inhibition of DNA synthesis in human MDA-MB-231 cells; assay type: toxicity, cell-based; conditions: MCF-10A cells and MDA-MB-231 cells
MDA-MB-231 [14] = assay: Inhibition of mitochondrial membrane potential in human MDA-MB-231 cells assessed as decrease in ATP level incubated for 24 hrs by luminescence based analysis; assay type: functional, cell-based
MDA-MB-231 [15] = assay: Antitumor activity against human MDA-MB-231 cells xenografted in BALB/c nude mouse assessed as tumor size at 20 mg/kg, iv administered every two days for 21 days (reference value: 1940 mm3); assay type: functional; conditions: time 21 day
MDA-MB-231 [16] = assay: Inhibition of mitochondrial membrane potential in human MDA-MB-231 cells assessed as increase in intracellular calcium ion level incubated for 24 hrs by Fluo-4 AM dye based analysis; assay type: functional, cell-based
[17] = Solubility of compound in PBS buffer at pH 7.4; assay type: physicochemical
MCF-10A [18] = assay: Cytotoxicity against human MCF-10A cells assessed as inhibition of cell viability at 150 uM incubated for 48 hrs by MTT assay; assay type: toxicity, cell-based
[19] = Solubility of compound in double distilled H2O; assay type: physicochemical; conditions: double distilled water
MDA-MB-231 [20] = assay: Cytotoxicity against human MDA-MB-231 cells incubated for 24 hrs by MTT assay; assay type: functional, cell-based; conditions: MDA-MB-231, 24 h
MDA-MB-231 [21] = assay: Antitumor activity against human MDA-MB-231 cells assessed as reduction in sphere volume incubated for 6 hrs followed by medium replacement without compound measured after 6 days by microscopic analysis; assay type: functional, cell-based
MDA-MB-231 [22] = assay: Antitumor activity against human MDA-MB-231 cells assessed as sphere-forming efficiency incubated for 6 hrs followed by medium replacement without compound measured after 6 days by microscopic analysis (reference value: 1.07 %); assay type: functional
MDA-MB-231 [23] = assay: Inhibition of mitochondrial membrane potential in human MDA-MB-231 cells incubated for 24 hrs by JC-1 dye based analysis; assay type: functional, cell-based
MCF-10A [24] = assay: Induction of apoptosis in human MCF-10A cells assessed as increase in caspase-3 activity incubated for 24 hrs; assay type: toxicity, cell-based
MCF-10A [25] = assay: Inhibition of mitochondrial membrane potential in human MCF-10A cells incubated for 24 hrs by JC-1 dye based analysis; assay type: toxicity, cell-based
MCF-10A [26] = assay: Induction of apoptosis in human MCF-10A cells assessed as necrotic cells incubated for 24 hrs by Annexin V-FITC/PI staining based flow cytometry (reference value: 0.17 %); assay type: toxicity, cell-based
MDA-MB-231 [27] = assay: Antitumor activity against human MDA-MB-231 cells xenografted in BALB/c nude mouse at 20 mg/kg, iv administered every two days for 21 days relative to control; assay type: functional; conditions: MDA-MB-231, 504 h, time 21 day, read-out: TGI
MDA-MB-231 [28] = assay: Cytotoxicity against human MDA-MB-231 cells assessed as inhibition of cell viability incubated for 48 hrs by MTT assay; assay type: functional, cell-based; conditions: MDA-MB-231, 48 h
[29] = Induction of apoptosis in human MCF-10A cells assessed as viable cells incubated for 24 hrs by Annexin V-FITC/PI staining based flow cytometry (reference value: 96.0 %); assay type: toxicity, cell-based; conditions: read-out: Activity
[30] = Lipophilicity, logP of compound; assay type: physicochemical; conditions: octanol/water
MCF-10A [31] = assay: Induction of apoptosis in human MCF-10A cells assessed as late apoptotic cells incubated for 24 hrs by Annexin V-FITC/PI staining based flow cytometry (reference value: 2.16 %); assay type: toxicity, cell-based
MDA-MB-231 [32] = assay: Induction of apoptosis in human MDA-MB-231 cells assessed as increase in caspase-3 activity incubated for 24 hrs; assay type: functional, cell-based
[33] = Cytotoxicity against human MCF-10A cells assessed as inhibition of cell viability incubated for 48 hrs by MTT assay; assay type: toxicity, cell-based
MDA-MB-231 [34] = assay: Cytotoxicity against human MDA-MB-231 cells incubated for 24 to 48 hrs by MTT assay; assay type: functional, cell-based; conditions: time 24-48 hrs
MDA-MB-231 [35] = assay: Effect on phlorizin-induced cytotoxicity against human MDA-MB-231 cells incubated for 12 hrs by MTT assay; assay type: functional, cell-based

**Q.** With `Br.[N-]=[N+]=Nc1ccc(C[n+]2cccc3cccc(O)c32)cc1` as the compound, how does the Activity (MDA-MB-231 [1]) read?
**A.** The Activity was less than 25%.

**Q.** What does the source list for `OC[C@H]1O[C@@H](Oc2ccc(C[n+]3cccc4cccc(O)c43)cc2)[C@H](O)[C@@H](O)[C@@H]1O.[Cl-]`?
**A.** pIC50 (MDA-MB-231 [2]): 4.75; Activity (MDA-MB-231 [3]): 0.043%; Activity (MDA-MB-231 [4]): 53.4%; logD ([5]; read-out: logD): 1.72; Activity (MDA-MB-231 [6]): 36.1%; Activity (MDA-MB-231 [7]): Active; Activity (MCF-10A [8]): 5.79%; inhibition (MDA-MB-231 [9]): Active; Activity (MDA-MB-231 [10]): Active; Activity (MDA-MB-231 [11]): 10.5%; Activity [12]: Non-toxic; selectivity ratio [13]: 5.7; inhibition (MDA-MB-231 [14]): Active; Activity (MDA-MB-231 [15]): 970 mm3; inhibition (MDA-MB-231 [16]): Active; solubility [17]: 34.2 µg/mL; Activity (MCF-10A [18]): Non-toxic; solubility [19]: 35.5 µg/mL; pIC50 (MDA-MB-231 [20]): 4.51; Activity (MDA-MB-231 [21]): Active; Activity (MDA-MB-231 [22]): 0.26%; inhibition (MDA-MB-231 [23]): Active; Activity (MCF-10A [24]): Non-toxic; inhibition (INH) (MCF-10A [25]): Non-toxic; Activity (MCF-10A [26]): 0.4%; inhibition in vivo at 20 mg/kg (MDA-MB-231 [27]): 49.6%; pIC50 (MDA-MB-231 [28]): 4.58; viability at 24 h [29]: 87.4%; logP ([30]; read-out: logP): 2.93; Activity (MCF-10A [31]): 6.44%; Activity (MDA-MB-231 [32]): Dose-dependent-effect

**Q.** With `OC[C@H]1O[C@@H](Oc2ccc(COc3cccc4cccnc34)cc2)[C@H](O)[C@@H](O)[C@@H]1O` as the compound, how does the Activity (MDA-MB-231 [3]) read?
**A.** Its Activity is 0.11%.

**Q.** And the Activity (MDA-MB-231 [4])?
**A.** The Activity was 24.5%.

**Q.** What about the logD [5] of the same compound?
**A.** Its logD is 4.14.

**Q.** What about the Activity (MDA-MB-231 [6]) of the same compound?
**A.** Its Activity is 52.3%.

**Q.** And the IC50 at 48 h [33]?
**A.** Its IC50 at 48 h is 4.13 µM.

**Q.** And the Activity (MCF-10A [8])?
**A.** Its Activity is 9.17%.

**Q.** What about the Activity (MDA-MB-231 [11]) of the same compound?
**A.** The Activity was 23%.

**Q.** And the Activity [12]?
**A.** Its Activity is “Non-toxic”.

**Q.** What about the Activity (MDA-MB-231 [34]) of the same compound?
**A.** Its Activity is “Active”.

**Q.** What about the selectivity ratio [13] of the same compound?
**A.** Its selectivity ratio is 2.3.

**Q.** What about the solubility [17] of the same compound?
**A.** The solubility was 15.6 µg/mL (≈ 37.8 µM).

**Q.** What about the solubility [19] of the same compound?
**A.** The solubility was 17.3 µg/mL (≈ 41.9 µM).

**Q.** And the Activity (MDA-MB-231 [22])?
**A.** Its Activity is 0.21%.

**Q.** What about the Activity (MDA-MB-231 [35]) of the same compound?
**A.** Its Activity is “inactive”.

**Q.** What about the Activity (MCF-10A [26]) of the same compound?
**A.** Its Activity is 0.88%.

**Q.** And the pIC50 (MDA-MB-231 [28])?
**A.** The pIC50 was 5.92.

**Q.** And the viability at 24 h [29]?
**A.** The viability at 24 h was 76.6%.

**Q.** What about the logP [30] of the same compound?
**A.** The logP was 3.81.

**Q.** What about the Activity (MCF-10A [31]) of the same compound?
**A.** The Activity was 13.3%.
